# Experimental data from ChEMBL document CHEMBL4000148, “Design of novel dispirooxindolopyrrolidine and dispirooxindolopyrrolothiazole derivatives as potential antitubercular agents” (Bioorg Med Chem Lett, 2015).
# What was measured:
# [1] = test system: Mycobacterium tuberculosis; test: Antitubercular activity against Mycobacterium tuberculosis H37Rv ATCC 27294 after 28 days by agar dilution method; assay type: functional; conditions: H37Rv ATCC 27294, 672 h
# [2] = Cytotoxicity against mouse RAW264.7 cells assessed as inhibition of cell viability at 50 uM after 72 hrs by MTT assay relative to control; assay type: cell-based; conditions: read-out: INH
# [3] = test system: Mycobacterium tuberculosis; test: Potency index, ratio of pyrazinamide MIC to compound MIC for Mycobacterium tuberculosis H37Rv ATCC 27294; assay type: functional
# [4] = test system: Mycobacterium tuberculosis; test: Potency index, ratio of ciprofloxacin MIC to compound MIC for Mycobacterium tuberculosis H37Rv ATCC 27294; assay type: functional
compound,measurement,setting,value
Cc1ccc([C@@H]2[C@H]3CSCN3[C@]3(C(=O)Nc4ccccc43)[C@@]23C(=O)Oc2ccccc23)cc1,MIC,[1],12.5 µg/mL
O=C1Oc2ccccc2[C@@]12[C@H](c1ccccc1)[C@H]1CSCN1[C@]21C(=O)Nc2ccccc21,MIC,[1],25 µg/mL
CSc1ccc([C@@H]2CN(C)[C@]3(C(=O)Nc4ccccc43)[C@@]23C(=O)Oc2ccccc23)cc1,MIC,[1],3.12 µg/mL
same,"cytotoxicity at 72 h, 50 µM",[2],28.7%
O=C1Oc2ccccc2[C@@]12[C@H](c1ccccc1)[C@H]1CSCN1[C@]21C(=O)Nc2ccc(Br)cc21,MIC,[1],25 µg/mL
CN1C[C@@H](c2ccccc2)[C@]2(C(=O)Oc3ccccc32)[C@@]12C(=O)Nc1ccccc12,MIC,[1],12.5 µg/mL
COc1ccc([C@@H]2[C@H]3CSCN3[C@]3(C(=O)Nc4ccc([N+](=O)[O-])cc43)[C@@]23C(=O)Oc2ccccc23)cc1,MIC,[1],25 µg/mL
O=C1Oc2ccccc2[C@@]12[C@H](c1ccc([N+](=O)[O-])cc1)[C@H]1CSCN1[C@]21C(=O)Nc2ccccc21,Ratio,[3],4
same,MIC,[1],1.56 µg/mL
same,Ratio,[4],2
same,"cytotoxicity at 72 h, 50 µM",[2],20.7%
O=C1Oc2ccccc2[C@@]12[C@H](c1ccc(Cl)cc1)[C@H]1CSCN1[C@]21C(=O)Nc2ccc(Br)cc21,MIC,[1],3.12 µg/mL
same,"cytotoxicity at 72 h, 50 µM",[2],34.6%
CN1C[C@@H](c2ccc(Cl)cc2)[C@]2(C(=O)Oc3ccccc32)[C@@]12C(=O)Nc1ccccc12,MIC,[1],6.25 µg/mL
same,"cytotoxicity at 72 h, 50 µM",[2],30.1%
CSc1ccc([C@@H]2[C@H]3CSCN3[C@]3(C(=O)Nc4ccc(Br)cc43)[C@@]23C(=O)Oc2ccccc23)cc1,MIC,[1],6.25 µg/mL
same,"cytotoxicity at 72 h, 50 µM",[2],28.1%
O=C1Oc2ccccc2[C@@]12[C@H](c1ccc([N+](=O)[O-])cc1)[C@H]1CSCN1[C@]21C(=O)Nc2ccc(Br)cc21,MIC,[1],3.12 µg/mL
same,"cytotoxicity at 72 h, 50 µM",[2],43.1%
O=C1Oc2ccccc2[C@@]12[C@H](c1ccc(Br)cc1)[C@H]1CSCN1[C@]21C(=O)Nc2ccc(Br)cc21,MIC,[1],3.12 µg/mL
same,"cytotoxicity at 72 h, 50 µM",[2],32.4%
CSc1ccc([C@@H]2[C@H]3CSCN3[C@]3(C(=O)Nc4ccccc43)[C@@]23C(=O)Oc2ccccc23)cc1,MIC,[1],12.5 µg/mL
COc1ccc([C@@H]2CN(C)[C@]3(C(=O)Nc4ccccc43)[C@@]23C(=O)Oc2ccccc23)cc1,MIC,[1],12.5 µg/mL
Cc1ccc([C@@H]2[C@H]3CSCN3[C@]3(C(=O)Nc4ccc(Br)cc43)[C@@]23C(=O)Oc2ccccc23)cc1,MIC,[1],12.5 µg/mL
O=C1Oc2ccccc2[C@@]12[C@H](c1ccc(Br)cc1)[C@H]1CSCN1[C@]21C(=O)Nc2ccc([N+](=O)[O-])cc21,MIC,[1],12.5 µg/mL
COc1ccc([C@@H]2[C@H]3CSCN3[C@]3(C(=O)Nc4ccccc43)[C@@]23C(=O)Oc2ccccc23)cc1,Ratio,[3],4
same,MIC,[1],1.56 µg/mL
same,Ratio,[4],2
same,"cytotoxicity at 72 h, 50 µM",[2],27.5%
Cc1ccc([C@@H]2[C@H]3CSCN3[C@]3(C(=O)Nc4ccc([N+](=O)[O-])cc43)[C@@]23C(=O)Oc2ccccc23)cc1,MIC,[1],> 25 µg/mL
O=C1Oc2ccccc2[C@@]12[C@H](c1ccc(Br)cc1)[C@H]1CSCN1[C@]21C(=O)Nc2ccccc21,MIC,[1],3.12 µg/mL
same,"cytotoxicity at 72 h, 50 µM",[2],28.5%
CSc1ccc([C@@H]2[C@H]3CSCN3[C@]3(C(=O)Nc4ccc([N+](=O)[O-])cc43)[C@@]23C(=O)Oc2ccccc23)cc1,MIC,[1],12.5 µg/mL
O=C1Oc2ccccc2[C@@]12[C@H](c1ccc(Cl)cc1)[C@H]1CSCN1[C@]21C(=O)Nc2ccccc21,MIC,[1],3.12 µg/mL
same,"cytotoxicity at 72 h, 50 µM",[2],32.3%
CN1C[C@@H](c2ccc([N+](=O)[O-])cc2)[C@]2(C(=O)Oc3ccccc32)[C@@]12C(=O)Nc1ccccc12,MIC,[1],3.12 µg/mL
same,"cytotoxicity at 72 h, 50 µM",[2],29.5%
COc1ccc([C@@H]2[C@H]3CSCN3[C@]3(C(=O)Nc4ccc(Br)cc43)[C@@]23C(=O)Oc2ccccc23)cc1,MIC,[1],50 µg/mL
O=C1Oc2ccccc2[C@@]12[C@H](c1ccc([N+](=O)[O-])cc1)[C@H]1CSCN1[C@]21C(=O)Nc2ccc([N+](=O)[O-])cc21,MIC,[1],50 µg/mL
O=C1Oc2ccccc2[C@@]12[C@H](c1ccccc1)[C@H]1CSCN1[C@]21C(=O)Nc2ccc([N+](=O)[O-])cc21,MIC,[1],3.12 µg/mL
same,"cytotoxicity at 72 h, 50 µM",[2],35.2%
O=C(O)c1cn(C2CC2)c2cc(N3CCNCC3)c(F)cc2c1=O [CIPROFLOXACIN],MIC,[1],3.13 µg/mL
CC[C@@H](CO)NCCN[C@@H](CC)CO [ETHAMBUTOL],MIC,[1],1.56 µg/mL
NNC(=O)c1ccncc1 [ISONIAZID],MIC,[1],0.05 µg/mL
NC(=O)c1cnccn1 [PYRAZINAMIDE],MIC,[1],6.25 µg/mL
CO[C@H]1/C=C/O[C@@]2(C)Oc3c(C)c(O)c4c(O)c(c(/C=N/N5CCN(C)CC5)c(O)c4c3C2=O)NC(=O)/C(C)=C\C=C\[C@H](C)[C@H](O)[C@@H](C)[C@@H](O)[C@@H](C)[C@H](OC(C)=O)[C@@H]1C [RIFAMPIN],MIC,[1],0.1 µg/mL
